In brackets after ≈: the same amount, converted by molar mass.
How the values were obtained:
[1] = system: B. pseudomallei Bp82; experiment: microbe, parasite or virus in culture; format: cell-based; details: Burkholderia pseudomallei, BP82, read-out: Minimum inhibitory concentration, B. pseudomallei Bp82
[2] = system: A. baumannii CDC-0083; experiment: microbe, parasite or virus in culture; format: cell-based; details: Acinetobacter baumannii, CDC0083, read-out: MIC, A. baumannii CDC-0083
[3] = molecular target: T1, A. baumannii PBP1a (Acinetobacter baumannii, UniProt A0ABX6CK30); experiment: Bocillin-FL competition binding via gel filtration, A. baumannii PBP1a; details: competition binding assay using Bocillin-FL via gel filtration; read-out: A. baumannii PBP1a Potency
T1 sequence (A0ABX6CK30 1-851): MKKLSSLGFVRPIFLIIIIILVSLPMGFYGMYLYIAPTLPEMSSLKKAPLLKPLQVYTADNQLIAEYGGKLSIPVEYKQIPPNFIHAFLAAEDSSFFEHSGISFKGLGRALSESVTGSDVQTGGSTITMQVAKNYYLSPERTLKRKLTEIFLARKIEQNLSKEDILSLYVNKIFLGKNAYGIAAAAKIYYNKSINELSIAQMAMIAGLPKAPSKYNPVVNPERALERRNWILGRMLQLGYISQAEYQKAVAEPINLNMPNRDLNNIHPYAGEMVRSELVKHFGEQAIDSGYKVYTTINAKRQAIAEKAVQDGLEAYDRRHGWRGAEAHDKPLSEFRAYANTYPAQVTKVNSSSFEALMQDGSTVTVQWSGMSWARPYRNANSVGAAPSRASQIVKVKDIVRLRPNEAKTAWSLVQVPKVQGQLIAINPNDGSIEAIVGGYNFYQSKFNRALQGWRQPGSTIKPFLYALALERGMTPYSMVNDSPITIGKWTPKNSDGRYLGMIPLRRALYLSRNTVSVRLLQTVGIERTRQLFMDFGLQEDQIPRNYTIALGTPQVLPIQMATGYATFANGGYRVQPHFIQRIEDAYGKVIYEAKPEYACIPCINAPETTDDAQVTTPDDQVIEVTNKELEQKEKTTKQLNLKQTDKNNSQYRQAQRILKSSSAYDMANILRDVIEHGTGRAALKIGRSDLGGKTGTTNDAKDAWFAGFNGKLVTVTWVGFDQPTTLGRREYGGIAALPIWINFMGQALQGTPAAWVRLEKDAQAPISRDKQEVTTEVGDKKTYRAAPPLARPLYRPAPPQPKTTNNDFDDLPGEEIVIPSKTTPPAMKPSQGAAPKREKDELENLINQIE
Outline: (§1)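 Competitive equilibrium binding; reporter Bocillin-FL. PBP + inhibitor (titration) pre-incubated → Bocillin-FL, 15 min → gel filtration → fluorescence. EC50 from Hill fit of fraction bound vs [inhibitor].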

[4] = molecular target: A. baumannii PBP2 (Acinetobacter baumannii, UniProt D0C8Z9); experiment: Bocillin-FL competition binding via gel filtration, A. baumannii PBP2
Outline: as §1

Chain of A. baumannii PBP2 (D0C8Z9 whole entry): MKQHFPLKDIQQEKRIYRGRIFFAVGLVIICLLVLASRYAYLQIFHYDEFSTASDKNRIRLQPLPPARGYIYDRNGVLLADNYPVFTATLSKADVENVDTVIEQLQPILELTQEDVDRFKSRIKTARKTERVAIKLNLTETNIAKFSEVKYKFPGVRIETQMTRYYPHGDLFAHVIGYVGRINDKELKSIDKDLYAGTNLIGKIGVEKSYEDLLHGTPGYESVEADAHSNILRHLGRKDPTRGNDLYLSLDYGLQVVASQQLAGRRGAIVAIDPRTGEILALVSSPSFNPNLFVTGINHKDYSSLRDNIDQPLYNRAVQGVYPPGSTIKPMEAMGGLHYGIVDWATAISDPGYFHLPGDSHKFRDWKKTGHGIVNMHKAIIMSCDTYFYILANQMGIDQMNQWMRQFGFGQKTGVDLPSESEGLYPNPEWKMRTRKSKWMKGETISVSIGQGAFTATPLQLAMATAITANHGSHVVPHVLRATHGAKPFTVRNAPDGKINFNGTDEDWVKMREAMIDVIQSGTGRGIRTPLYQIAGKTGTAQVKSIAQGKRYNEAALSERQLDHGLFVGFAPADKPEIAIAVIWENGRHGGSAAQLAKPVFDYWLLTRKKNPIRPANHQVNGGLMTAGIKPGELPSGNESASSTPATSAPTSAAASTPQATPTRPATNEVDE

Row | Structure (SMILES) | MIC [1] [µg/mL] | MIC [2] [µg/mL] | EC50 [3] [µM] | EC50 [4] [µM]
1 | O=C(NCCCN1CCN(C(=O)NC(C(=O)N[C@H]2Cc3ccc(F)c(C(=O)O)c3OB2O)c2cc(F)c(O)c(O)c2Cl)C(=O)C1=O)c1cccc(O)c1 (stereo partly drawn) [Example 204, (3R)-3-(2-(2-chloro-5-fluoro-3,4-dihydroxyphenyl)-2-(4-(3-(3-hydroxybenzamido)propyl)-2,3-dioxopiperazine-1-carboxamido)acetamido)-7-fluoro-2-hydroxy-3,4-dihydro-2H-benzo[e][1,2]oxaborinine-8-carboxylic acid] | < 1 | < 1 | 10 to 50 | 10 to 50
2 | O=C(NCCCN1CCN(C(=O)NC(C(=O)N[C@H]2Cc3ccc(F)c(C(=O)O)c3OB2O)c2cc(F)c(O)c(O)c2Cl)C(=O)C1=O)c1ccc(O)cc1 (stereo partly drawn) [Example 203, (3R)-3-(2-(2-chloro-5-fluoro-3,4-dihydroxyphenyl)-2-(4-(3-(4-hydroxybenzamido)propyl)-2,3-dioxopiperazine-1-carboxamido)acetamido)-7-fluoro-2-hydroxy-3,4-dihydro-2H-benzo[e][1,2]oxaborinine-8-carboxylic acid] | < 1 | < 1 | < 10 | 10 to 50
3 | O=C(NCCN1CCN(C(=O)NC(C(=O)N[C@H]2Cc3ccc(F)c(C(=O)O)c3OB2O)c2cc(F)c(O)c(O)c2Cl)C(=O)C1=O)c1ccc(O)cc1 (stereo partly drawn) [Example 214, (3R)-3-(2-(2-chloro-5-fluoro-3,4-dihydroxyphenyl)-2-(4-(2-(4-hydroxybenzamido)ethyl)-2,3-dioxopiperazine-1-carboxamido)acetamido)-7-fluoro-2-hydroxy-3,4-dihydro-2H-benzo[e][1,2]oxaborinine-8-carboxylic acid] | 2 to 4 (≈ 2.68 to 5.36 µM) | > 128 | 10 to 50 | 10 to 50
4 | O=C(NCCCN1CCN(C(=O)NC(C(=O)N[C@H]2Cc3ccc(F)c(C(=O)O)c3OB2O)c2cc(F)c(O)c(O)c2Cl)C(=O)C1=O)Nc1ccc(O)cc1 (stereo partly drawn) [Example 227, (3R)-3-(2-(2-chloro-5-fluoro-3,4-dihydroxyphenyl)-2-(4-(3-(3-(4-hydroxyphenyl)ureido)propyl)-2,3-dioxopiperazine-1-carboxamido)acetamido)-7-fluoro-2-hydroxy-3,4-dihydro-2H-benzo[e][1,2]oxaborinine-8-carboxylic acid] | < 1 | < 1 | 10 to 50 | 10 to 50
5 | O=C(NCCCN1CCN(C(=O)NC(C(=O)N[C@H]2Cc3ccc(F)c(C(=O)O)c3OB2O)c2cc(F)c(O)c(O)c2Cl)C1=O)Nc1cccnc1 (stereo partly drawn) [Example 259, (3R)-3-(2-(2-chloro-5-fluoro-3,4-dihydroxyphenyl)-2-(2-oxo-3-(3-(3-(pyridin-3-yl)ureido)propyl)imidazolidine-1-carboxamido)acetamido)-7-fluoro-2-hydroxy-3,4-dihydro-2H-benzo[e][1,2]oxaborinine-8-carboxylic acid] | < 1 | < 1 | 10 to 50 | < 10
6 | O=C(NCCCN1CCN(C(=O)N[C@@H](C(=O)N[C@H]2Cc3ccc(F)c(C(=O)O)c3OB2O)c2cc(F)c(O)c(O)c2Cl)C1=O)c1cccc(O)c1 [Example 255, (R)-3-((R)-2-(2-chloro-5-fluoro-3,4-dihydroxyphenyl)-2-(3-(3-(3-hydroxybenzamido)propyl)-2-oxoimidazolidine-1-carboxamido)acetamido)-7-fluoro-2-hydroxy-3,4-dihydro-2H-benzo[e][1,2]oxaborinine-8-carboxylic acid] | < 1 | < 1 | 10 to 50 | 10 to 50
7 | O=C(NCCCN1CCN(C(=O)N[C@@H](C(=O)N[C@H]2Cc3ccc(F)c(C(=O)O)c3OB2O)c2cc(F)c(O)c(O)c2Cl)C1=O)Nc1cccc(O)c1 [Example 258, (R)-3-((R)-2-(2-chloro-5-fluoro-3,4-dihydroxyphenyl)-2-(3-(3-(3-(3-hydroxyphenyl)ureido)propyl)-2-oxoimidazolidine-1-carboxamido)acetamido)-7-fluoro-2-hydroxy-3,4-dihydro-2H-benzo[e][1,2]oxaborinine-8-carboxylic acid] | < 1 | < 1 | 10 to 50 | < 10
8 | O=C(NCCN1CCN(C(=O)NC(C(=O)N[C@H]2Cc3ccc(F)c(C(=O)O)c3OB2O)c2cc(F)c(O)c(O)c2Cl)C(=O)C1=O)c1ccncc1 (stereo partly drawn) [Example 216, (3R)-3-(2-(2-chloro-5-fluoro-3,4-dihydroxyphenyl)-2-(4-(2-(isonicotinamido)ethyl)-2,3-dioxopiperazine-1-carboxamido)acetamido)-7-fluoro-2-hydroxy-3,4-dihydro-2H-benzo[e][1,2]oxaborinine-8-carboxylic acid] | < 1 | > 128 | 10 to 50 | 10 to 50
